System: Fusarium virguliforme
Test: Growth chamber soybean sudden death syndrome seed treatment test, soil inoculated with F. virguliforme spores, visual disease severity rating
Assay type: in vivo
Details: for reduction in disease severity: seed treatment, versus control; for Sudden death syndrome Disease Severity (1-9): seed treatment (thiabendazole 5 g ai/100 kg seed; 2.5 g fludioxonil + 3.75 g mefenoxam/100 kg seed), averaged across five growth chamber runs, Njiti et al. scale
Source text: Soybean cultivars NK-529-J6 and NK-533-T4 where used for testing. Cultivar NK-529-J6 is labeled as partially resistant to SDS and cultivar NK-533-T4 is labeled susceptible to SDS (Syngenta Seeds, Minneapolis, Minn.). Thiabendazole fungicide seed treatment was applied to both cultivars at a rate of 5 g a.i./100 kg seed. A mefenoxam and fludioxonil combination fungicide seed treatment was also applied at a rate of 3.75 g a.i./100 kg seed and 2.5 g a.i./100kg seed, respectively. Three pathogenic isolates of F. virguliforme (Scherm et al., 1978) were used to inoculate grain sorghum (Sorghum bicolor (L.)) following the methods of Farris Neto et al. (2006). Isolates were grown on one third strength Difco Potato Dextrose Agar (PDA) growth medium. After 18 days, isolate growth on the PDA was divided into thirds and placed into a bag containing 2.27 kg of sorghum seed and allowed to incubate at room temperature for 15 days. Five experiments were conducted in a growth chamber. Each experiment was a randomized complete block design with eight replications. A 1:1 ratio of soil and sand medium was mixed together thoroughly, and steam sterilized at 121° C. for one hour. Upon sterilization of the soil medium 150 g of soil and 2.25 g of yellow cornmeal was weighed and mixed together for each conetainer. A spore suspension was prepared using 17 to 20 day old isolates of F. virguliforme grown on PDA media. Each isolate was aseptically flooded with sterilized, de-ionized water and scraped from the PDA plates causing the release of F. virguliforme spores. Each isolate was then strained through cheesecloth and mixed together to produce the spore suspension. Spore concentrations were determined using a hemacytometer, and concentrations were adjusted to produce 10 000 spores g soil^−1. After the spore concentration was determined the spore suspension was diluted to a volume of 13 ml of spore suspension per conetainer. The soil was then inoculated with the diluted spore suspension (Gongora-Canul and Leandro, 2007). Once the soil was inoculated, conetainers were filled level full with the inoculated soil, and then planted with two seeds of each variety by seed treatment combination (after emergence, thinned to one plant per conetainer) and placed in the growth chamber. Growth chambers were set at 17° C. for one week then changed to 24° C., and maintained for the remainder of the experiment. Growth chambers were set to 17° C. to help slow the germination of the soybean and therefore increase the probability for infection of F. virguliforme to take place (Gongora-Canul and Leandro, 2008). […]
Data collection for the growth chambers consisted of visual disease ratings of SDS symptom severity following the methods of Njiti et al. (1996). […] Disease incidence was recorded as a presence/absence rating.

## c1ccc2[nH]c(-c3cscn3)nc2c1 [Thiabendazole, thiabendazole]
Soybean cultivar NK-533-T4
  reduction in disease severity: 35%
Soybean cultivar NK-S29-J6 (partially resistant to SDS)
  Sudden death syndrome Disease Severity (1-9): 0.96
Soybean cultivar NK-S29-J6 (printed NK-29-J6)
  reduction in disease severity: 25%
Soybean cultivar NK-S33-T4 (SDS susceptible), LSD (0.05) 0.39
  Sudden death syndrome Disease Severity (1-9): 1.08

From patent publication US20130205659A1, “METHOD OF CONTROLLING FUSARIUM VIGULIFORME AND SOYBEAN SUDDEN DEATH SYNDROME USING THIABENDAZOLE” (SYNGENTA CROP PROTECTION LLC, priority 2010, published 2013)
